GI50 and TGI data for 13 molecules are collected here from PubChem BioAssay (NCI).

Each structure is given as a SMILES string.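 Values below derive from 48-hour exposures of cells grown in 96-well plates, with endpoints linearly interpolated between the two concentrations bracketing the appropriate inhibition level. GI50 = concentration required for 50% inhibition of growth. TGI: total growth inhibition.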

Test systems include A549 NSCLC; BT-549 breast; NCI-H460 lung; SK-MEL-28 melanoma; SNB-19 CNS; SW-620 colon; TK-10 renal; CAKI-1 renal; HL-60(TB) leukemia; K-562 leukemia.
What all share (assay): NCI-60 cell line screen, 48 h

Regarding `Cn1cc(-c2csc(-c3cn(CCCCN4CCCCC4)c4ccccc34)n2)c2cccnc21`, the GI50 is 1.79 µM in the test with A549 NSCLC; 1.75 µM in the test with BT-549 breast; 1.83 µM in the test on NCI-H460 lung; 1.7 µM in the test on SK-MEL-28 melanoma; 1.64 µM in the test with SNB-19 CNS; 1.72 µM with SW-620 colon. Moreover, the GI50 in the test with TK-10 renal is 1.61 µM. For the same molecule, the TGI was determined as 3.37 µM with A549 NSCLC; 3.37 µM with BT-549 breast; 3.44 µM with NCI-H460 lung; 3.12 µM with SK-MEL-28 melanoma; 3.07 µM in the test with SNB-19 CNS; 3.25 µM in the test with SW-620 colon. This molecule showed a TGI in the test on TK-10 renal of 3.05 µM.

On to `COC(=O)C(=O)C(C(C)=O)C(=O)NCc1ccc(OC)c(OC)c1` (configuration not stated), for which the TGI in the test on A549 NSCLC, in the test with CAKI-1 renal, with HL-60(TB) leukemia, with K-562 leukemia, in the test with NCI-H460 lung and with SK-MEL-28 melanoma was more than 100 µM throughout. Further, the TGI in the test with SNB-19 CNS, with SW-620 colon and with TK-10 renal was more than 100 µM each time.

`O=C(CC(=O)C1CCOC1=O)C(=O)Nc1cccc(Cl)c1` (configuration not stated): the TGI in the test with A549 NSCLC, in the test with CAKI-1 renal, with HL-60(TB) leukemia, in the test with K-562 leukemia, in the test with NCI-H460 lung and in the test with SK-MEL-28 melanoma was more than 100 µM in each case. In addition, the TGI in the test on SNB-19 CNS, in the test with SW-620 colon and in the test on TK-10 renal was more than 100 µM throughout.

For the molecule `Cc1ccccc1C1=[N+]([O-])c2ccc(Cl)cc2C1=O`, the TGI with A549 NSCLC came to 34.2 µM; in the test with HL-60(TB) leukemia it was 6.22 µM; in the test with K-562 leukemia it was 24.1 µM; in the test on NCI-H460 lung it was 30.9 µM; with SK-MEL-28 melanoma it was 35.9 µM; with SNB-19 CNS it was 64.4 µM. For the same molecule, the results for the TGI with SW-620 colon and in the test on TK-10 renal were 40.9 µM and 34.5 µM, respectively.

As to `COc1cc(/C=C\c2cc(OC)c(OC)c(OC)c2)cc(N/C=C\C(=O)c2c[nH]c3ccccc23)c1OC`, the GI50 in the test on A549 NSCLC was 14.5 µM; in the test on BT-549 breast, 1.64 µM; with CAKI-1 renal it was 1.58 µM; with K-562 leukemia it was 1.54 µM; in the test with NCI-H460 lung it was 5.6 µM; with SK-MEL-28 melanoma, 1.86 µM. The GI50 with SNB-19 CNS is 3.92 µM; in the test with SW-620 colon, 1.63 µM; with TK-10 renal, 1.86 µM. The TGI in the test with A549 NSCLC is 34.8 µM; in the test on BT-549 breast, 3.38 µM; in the test with CAKI-1 renal it was 2.95 µM; in the test with K-562 leukemia it was more than 100 µM; in the test with NCI-H460 lung it was 27.1 µM; in the test with SK-MEL-28 melanoma, 3.79 µM. For the same molecule, the TGI in the test with SNB-19 CNS amounted to 24.4 µM; in the test with SW-620 colon it was 3.31 µM; in the test with TK-10 renal, 3.54 µM.

Take `CCC1CN2CCc3cc(OC)c(OC)cc3C2CC1CC1c2cc(OC)c(OC)cc2CCN1C(=O)C1CCCN1` (configuration not stated): the TGI in the test on A549 NSCLC was 78.1 µM; with CAKI-1 renal it was more than 100 µM; in the test on HL-60(TB) leukemia, 43.9 µM; with K-562 leukemia, 51.4 µM; with NCI-H460 lung it was 74.8 µM; with SK-MEL-28 melanoma, 50.9 µM. Besides, the TGI with SNB-19 CNS, with SW-620 colon and with TK-10 renal was more than 100 µM each time.

With `CCOC(=O)NC(=O)c1cn(C(CC)COC(=O)NCCCCCCNC(=O)OCC(CC)n2cc(C(=O)NC(=O)OCC)c(=O)[nH]c2=O)c(=O)[nH]c1=O` (configuration not stated), the TGI in the test with A549 NSCLC, in the test with CAKI-1 renal, with HL-60(TB) leukemia, in the test with K-562 leukemia, with NCI-H460 lung and in the test with SK-MEL-28 melanoma was more than 100 µM throughout. Further, the TGI with SNB-19 CNS and in the test on SW-620 colon was more than 100 µM each time.

Consider `COC(=O)/C(=N/O)C(C(=O)C=C(C)C)C(=O)C(=O)Nc1nc2ccc([N+](=O)[O-])cc2s1` (configuration not stated), for which the TGI was more than 100 µM in the test with A549 NSCLC; 97 µM in the test with CAKI-1 renal; more than 100 µM in the test with HL-60(TB) leukemia; more than 100 µM in the test on K-562 leukemia; more than 100 µM with NCI-H460 lung; more than 100 µM with SK-MEL-28 melanoma. The values for the TGI with SNB-19 CNS, in the test on SW-620 colon and in the test on TK-10 renal were more than 100 µM, more than 100 µM and 95.8 µM, respectively.

In the case of `Cn1c(=O)nc2n(-c3cc(C(F)(F)F)cc(C(F)(F)F)c3)c3ccccc3nc-2c1=O`, the TGI with A549 NSCLC, in the test with CAKI-1 renal, with HL-60(TB) leukemia, with K-562 leukemia, in the test with NCI-H460 lung and in the test on SK-MEL-28 melanoma was more than 100 µM throughout. Besides, the TGI in the test on SNB-19 CNS, in the test with SW-620 colon and with TK-10 renal was more than 100 µM each time.

Consider `CC(C(=O)c1ccc(Cl)cc1)/C(=N/NC(=O)NN)C(=O)Nc1cccc(C(F)(F)F)c1` (configuration not stated), for which the TGI in the test with A549 NSCLC, in the test on CAKI-1 renal, with HL-60(TB) leukemia, in the test with K-562 leukemia, in the test with NCI-H460 lung and with SK-MEL-28 melanoma was more than 100 µM throughout. Moreover, the TGI in the test with SNB-19 CNS, in the test on SW-620 colon and with TK-10 renal was more than 100 µM each time.

In the case of `O=C(N/C(=C\c1ccc([N+](=O)[O-])cc1)c1nc2ccccc2[nH]1)c1ccccc1`, the TGI with A549 NSCLC, in the test with HL-60(TB) leukemia, with K-562 leukemia, with NCI-H460 lung, with SK-MEL-28 melanoma and in the test on SNB-19 CNS was more than 100 µM throughout. Further, the TGI in the test on SW-620 colon and with TK-10 renal was more than 100 µM each time.

`CC(=O)N1CCN(c2ccc(OCC3COC(Cn4ccnc4)(c4ccc(Cl)cc4Cl)O3)cc2)CC1` (configuration not stated): the TGI in the test on A549 NSCLC, with CAKI-1 renal, with HL-60(TB) leukemia, with K-562 leukemia, with NCI-H460 lung and with SK-MEL-28 melanoma was more than 100 µM in each case. Also, the TGI in the test on SW-620 colon was more than 100 µM; in the test with TK-10 renal, 99.9 µM.

As to `CC(C)CCC[C@@H](C)C1CCC2[C@@H]3CC=C4C[C@@H](C(=O)NCCN(C)C)CC[C@]4(C)C3CC[C@@]21C` (some centres not stated), the TGI in the test on A549 NSCLC, in the test on CAKI-1 renal, in the test with HL-60(TB) leukemia, with K-562 leukemia, with NCI-H460 lung and in the test with SK-MEL-28 melanoma was more than 100 µM each time. For the same molecule, the TGI in the test on SNB-19 CNS is more than 100 µM; in the test on SW-620 colon, more than 100 µM; in the test on TK-10 renal, 69.8 µM.
